Values of other authors in patent US7943666B2, “Esters of capsaicin for treating pain” (Trinity Laboratories, Inc., priority 2006, dated 2011).

How the values were obtained:
[1] = rats, i.v. administration
[2] = 540 mg per day orally for 30 days plus topical as needed; arthritis not responding to NSAIDs

Row | Time to distribution to brain, spinal cord, liver and blood [1] [min] | SMILES | Individuals improved [2] [%]
1 | ≤ 20 | COc1cc(CNC(=O)CCCCC=CC(C)C)ccc1O [capsaicin, 8-methyl-N-vanillyl-6-nonenamide] | 
2 |  | CCCC/C=C\CCCCCCCC(=O)OCCCCCCCCCCCCCCCC [cetyl myristoleate, cis-9-cetyl myristoleate] | 63.5
